Columns and labels:
[1] = daily standard dose of 20 mg; cited from earlier work
ERAP2 = ERAP2 expression in PBMC of RRMS patients over the course of GA treatment (exon arrays, PCR); format: in vivo, human; details: baseline, 3, 12 and 24 months of treatment (FIG. 4)
Method: Relapsing-remitting multiple sclerosis patients were treated with GA. Whole blood was taken from patients at four time points including baseline (baseline, month 3, month 12 and month 24). Peripheral blood mononuclear cells (PBMCs) were cryopreserved and RNA was isolated for gene expression analysis (FIG. 3).
Gene expression analysis was performed using Affymetrix Human Exon 1.0 ST expression arrays. Preprocessing was performed with an integrated three-step approach: background correction, normalization […] implemented in the Affymetrix Expression Console. Batch effects normalization was performed with the removeBatchEffect function from limma R package.
PCR analysis was performed in order to validate the expression of ERAP2 in Responder populations as compared to Non-Responders and Healthy Controls.

RRMS subjects [2] = details: largest controlled study, cited from earlier work
RRMS subjects [3] = details: over 9 months of treatment, 20 mg group (17 lesions under placebo); cited from earlier work

In the case of Glatiramer acetate [GA], the tolerability [1] is listed as “generally well tolerated”, the “ERAP2 expression change by treatment” value (ERAP2) is listed as “not modified” and the relapse rate reduced (RRMS subjects [2]; GA 20 mg vs placebo) is listed as 32%. The relapse rate (RRMS subjects [2]; under GA 20 mg (1.98 under placebo)) was 1.34 and the “median cumulative number of Gd-enhancing lesions” value (RRMS subjects [3]) was 11 lesions.
